For 26 molecules, IC50 results are on record in patent publication US9896445B2, “Heterocyclic inhibitors of ERK1 and ERK2 and their use in the treatment of cancer” (Asana Biosciences, LLC, priority 2015, dated 2018).

The IC50 is the concentration that inhibits the measured activity by half. Low values mean higher potency, high ones lower potency.

One assay addresses T1, ERK1 (Homo sapiens, UniProt P27361).
T1 construct: purchased Jubilant Biosys
The assay is described as follows: ERK1 HTRF (biochemical) assay. As to conditions: HTRF. The procedure:
ERK1 and ERK2 HTRF (Biochemical) Assays
These assays employed a homogeneous time resolved fluorescence (HTRF) technique. […] The plate was incubated at room temperature for 60 min with shaking. […] The IC50 values (half maximal inhibitory concentration values) were subsequently determined using a sigmoidal dose-response curve (variable slope) in GraphPad Prism® 5 software.
A general note: Time-resolved FRET reads energy transfer from a long-lived donor to a nearby acceptor.

A further assay has as its target T2, ERK2 (Homo sapiens, UniProt P28482).
T2 construct: purchased Jubilant Biosys
The assay is described as follows: ERK2 HTRF (biochemical) assay. As to conditions: HTRF. The method in brief:
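Compounds were tested as half-log dilutions from 0.0005 to 10 uM in Tris pH 7.5/MgCl2 buffer, with a substrate mix of 1 uM biotin-MBP peptide and 24 uM ATP and an enzyme mix of 25 nM ERK2. Reaction ran 60 min at room temperature. Phospho-MBP was detected by HTRF (Eu-anti-phospho-MBP/SA-APC, 665/620 nm), and IC50 was fitted with a variable-slope sigmoidal curve.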

T2 sequence (P28482 whole entry): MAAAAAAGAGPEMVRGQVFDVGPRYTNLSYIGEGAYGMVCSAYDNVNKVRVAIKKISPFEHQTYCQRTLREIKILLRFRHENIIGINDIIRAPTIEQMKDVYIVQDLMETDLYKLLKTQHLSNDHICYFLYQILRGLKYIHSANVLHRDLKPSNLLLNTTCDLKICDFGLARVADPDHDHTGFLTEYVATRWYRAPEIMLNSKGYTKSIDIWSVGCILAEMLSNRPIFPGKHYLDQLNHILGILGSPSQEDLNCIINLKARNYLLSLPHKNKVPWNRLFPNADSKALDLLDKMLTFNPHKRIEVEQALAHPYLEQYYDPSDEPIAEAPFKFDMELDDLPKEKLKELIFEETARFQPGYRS
T1 sequence (P27361 whole entry): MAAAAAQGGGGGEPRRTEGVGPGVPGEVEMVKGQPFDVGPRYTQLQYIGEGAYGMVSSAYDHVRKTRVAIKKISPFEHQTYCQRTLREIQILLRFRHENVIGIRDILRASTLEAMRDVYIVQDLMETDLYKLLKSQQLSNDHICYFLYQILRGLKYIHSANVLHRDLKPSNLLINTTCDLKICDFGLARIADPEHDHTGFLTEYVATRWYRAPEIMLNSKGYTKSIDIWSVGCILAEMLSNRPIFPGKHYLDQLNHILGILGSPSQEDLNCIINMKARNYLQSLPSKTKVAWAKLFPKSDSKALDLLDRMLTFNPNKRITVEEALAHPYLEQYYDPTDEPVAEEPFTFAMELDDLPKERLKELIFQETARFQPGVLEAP

In the case of `Cc1cnc(NC(CO)CO)nc1-n1cnc(C(=O)N[C@H](CO)c2cccc(Cl)c2)c1` [Example 260, (S)-N-(1-(3-chlorophenyl)-2-hydroxyethyl)-1-(2-((1,3-dihydroxy-propan-2-yl)amino)-5-methylpyrimidin-4-yl)-1H-imidazole-4-carboxamide], the IC50 on ERK1 is less than 50 nM; on ERK2, not above 50 nM.

With `Cc1ccc(C(CO)NC(=O)c2cn(-c3nc(NC4CCOCC4)ncc3C)cn2)s1` (stereo not shown) [Example 261, N-(2-hydroxy-1-(5-methylthiophen-2-yl)ethyl)-1-(5-methyl-2-((tetrahydro-2H-pyran-4-yl)amino)-pyrimidin-4-yl)-1H-imidazole-4-carboxamide], the IC50 at ERK1 was less than 50 nM; against ERK2, not above 50 nM.

Regarding `Cc1cnc(Nc2ccc(F)cc2)nc1-n1cnc(C(=O)NCc2cccc(Cl)c2CO)c1` [Example 262, N-(3-chloro-2-(hydroxymethyl)benzyl)-1-(2-((4-fluorophenyl)-amino)-5-methyl-pyrimidin-4-yl)-1H-imidazole-4-carbox amide], the IC50 at ERK1 is less than 50 nM; at ERK2 it was not above 50 nM.

Consider `Cc1cnc(N[C@@H]2CCOC2)nc1-n1cnc(C(=O)N[C@H](CN)c2cccc(Cl)c2)c1` [Example 264, N-((S)-2-amino-1-(3-chlorophenyl)-ethyl)-1-(5-methyl-2-(((R)-tetrahydrofuran-3-yl)amino)pyrimidin-4-yl)-1H-imidazole-4-carboxamide], for which the IC50 against ERK1 is less than 50 nM; against ERK2, not above 50 nM.

For the molecule `Cc1cnc(N[C@@H]2CCOC2)nc1-n1cnc(C(=O)N[C@H](CO)c2cccc(Cl)c2)c1` [Example 265, N-((S)-1-(3-chlorophenyl)-2-hydroxyethyl)-1-(5-methyl-2-(((R)-tetrahydrofuran-3-yl)amino)pyrimidin-4-yl)-1H-imidazole-4-carboxamide], the 50% inhibitory concentration (IC50) at ERK1 is less than 50 nM; against ERK2, not above 50 nM.

On to `Cc1cnc(Nc2ccc3c(c2)OCO3)nc1-n1cnc(C(=O)N[C@H](CN)c2cccc(Cl)c2)c1` [Example 266, (S)-N-(2-amino-1-(3-chlorophenyl)-ethyl)-1-(2-(benzo[d][1,3]dioxol-5-ylamino)-5-methylpyrimidin-4-yl)-1H-imidazole-4-carboxamide], for which the IC50 against ERK1 is less than 50 nM; against ERK2, not above 50 nM.

With `Cc1cnc(NC2CCOCC2)nc1-n1cnc(C(=O)NC(CN)c2cccs2)c1` (stereo not shown) [Example 267, N-(2-amino-1-(thiophen-2-yl)ethyl)-1-(5-methyl-2-((tetrahydro-2H-pyran-4-yl)amino)-pyrimidin-4-yl)-1H-imidazole-4-carboxamide], the values for the IC50 on ERK1 and on ERK2 were less than 50 nM and not above 50 nM, respectively.

As to `Cc1cnc(NC2COC2)nc1-n1cnc(C(=O)N[C@H](CN)c2cccc(Cl)c2)c1` [Example 268, (S)-N-(2-amino-1-(3-chlorophenyl)-ethyl)-1-(5-methyl-2-(oxetan-3-ylamino)pyrimidin-4-yl)-1H-imidazole-4-carboxamide], the IC50 at ERK1 is less than 50 nM; against ERK2 it was not above 50 nM.

Consider `Cc1cnc(Nc2ccc3c(c2)OCO3)nc1-n1cnc(C(=O)NC(CN)c2cc(F)cc(Cl)c2)c1` (stereo not shown) [Example 269, N-(2-amino-1-(3-chloro-5-fluorophenyl)ethyl)-1-(2-(benzo[d][1,3]dioxol-5-ylamino)-5-methylpyrimidin-4-yl)-1H-imidazole-4-carboxamide], for which the half-maximal inhibitory concentration (IC50) on ERK1 is less than 50 nM; at ERK2, not above 50 nM.

Consider `Cc1cnc(N[C@H]2CCOC2)nc1-n1cnc(C(=O)NCc2cccc(Cl)c2CO)c1` [Example 270], for which the IC50 at ERK1 is less than 50 nM; against ERK2 it was not above 50 nM.

For the molecule `Cc1cnc(NC2CCOc3ccccc32)nc1-n1cnc(C(=O)N[C@H](CN)c2cccc(Cl)c2)c1` (stereo partly drawn) [Example 271, N-((S)-2-amino-1-(3-chlorophenyl)ethyl)-1-(2-(chroman-4-ylamino)-5-methylpyrimidin-4-yl)-1H-imidazole-4-carboxamide], the half-maximal inhibitory concentration (IC50) on ERK1 is less than 50 nM; on ERK2, not above 50 nM.

In the case of `Cc1cnc(Nc2cccc(N3CCOCC3)c2)nc1-n1cnc(C(=O)N[C@H](CN)c2cccc(Cl)c2)c1` [Example 272, (S)-N-(2-amino-1-(3-chlorophenyl)ethyl)-1-(5-methyl-2-((3-morpholino-phenyl)amino)pyrimidin-4-yl)-1H-imidazole-4-carboxamide], the values for the IC50 against ERK1 and at ERK2 were less than 50 nM and not above 50 nM, respectively.

As to `Cc1cnc(NC2CC(F)(F)C2)nc1-n1cnc(C(=O)NCc2cccc(Cl)c2CO)c1` [Example 273, N-(3-chloro-2-(hydroxymethyl)benzyl)-1-(2-((3,3-difluorocyclobutyl)amino)-5-methyl-pyrimidin-4-yl)-1H-imidazole-4-carboxamide], the half-inhibitory concentration (IC50) against ERK1 was less than 50 nM; against ERK2, not above 50 nM.

For the molecule `Cc1cnc(NC2CCOCC2)nc1-n1cnc(C(=O)NC(CN)c2ccc(Cl)s2)c1` (stereo not shown) [Example 274, N-(2-amino-1-(5-chlorothiophen-2-yl)ethyl)-1-(5-methyl-2-((tetrahydro-2H-pyran-4-yl)amino)-pyrimidin-4-yl)-1H-imidazole-4-carboxamide], the results for the IC50 against ERK1 and at ERK2 were less than 50 nM and not above 50 nM, respectively.

Take `Cc1cnc(NC2CCOCC2)nc1-n1cnc(C(=O)N[C@@H](CN)c2cc(F)cc(Cl)c2)c1` [Example 276, (R)-N-(2-amino-1-(3-chloro-5-fluoro-phenyl)ethyl)-1-(5-methyl-2-((tetrahydro-2H-pyran-4-yl)amino)-pyrimidin-4-yl)-1H-imidazole-4-carboxamide]: the IC50 against ERK1 was less than 50 nM; against ERK2, not above 50 nM.

In the case of `Cc1cnc(Nc2ccnn2C)nc1-n1cnc(C(=O)N[C@H](CO)c2cccc(Cl)c2)c1` [Example 277, (S)-N-(1-(3-chlorophenyl)-2-hydroxyethyl)-1-(5-methyl-2-((1-methyl-1H-pyrazol-5-yl)amino)-pyrimidin-4-yl)-1H-imidazole-4-carboxamide], the values for the IC50 at ERK1 and against ERK2 were less than 50 nM and not above 50 nM, respectively.

Regarding `Cc1cnc(NC2CC(F)(F)C2)nc1-n1cnc(C(=O)NC(CN)c2cc(F)cc(Cl)c2)c1` (stereo not shown) [Example 278, N-(2-amino-1-(3-chloro-5-fluoro-phenyl)ethyl)-1-(2-((3,3-difluoro-cyclobutyl)amino)-5-methylpyrimidin-4-yl)-1H-imidazole-4-carboxamide], the IC50 against ERK1 is less than 50 nM; on ERK2, not above 50 nM.

Turning to `Cc1cnc(Nc2ccnn2C)nc1-n1cnc(C(=O)N[C@H](CN)c2cccc(Cl)c2)c1` [Example 280, (S)-N-(2-amino-1-(3-chlorophenyl)-ethyl)-1-(5-methyl-2-((1-methyl-1H-pyrazol-5-yl)amino)-pyrimidin-4-yl)-1H-imidazole-4-carboxamide], the results for the IC50 against ERK1 and at ERK2 were less than 50 nM and not above 50 nM, respectively.

As for `Cc1cnc(NC2CCOCC2)nc1-n1cnc(C(=O)NCc2nccs2)c1` [Example 281, 1-(5-methyl-2-((tetrahydro-2H-pyran-4-yl)amino)-pyrimidin-4-yl)-N-(thiazol-2-ylmethyl)-1H-imidazole-4-carboxamide], the IC50 against ERK1 was less than 50 nM; against ERK2 it was not above 50 nM.

Turning to `Cc1cnc(NC2CCOCC2)nc1-n1cnc(C(=O)NCc2ccccc2CN)c1` [Example 283, N-(2-(amino-methyl)benzyl)-1-(5-methyl-2-((tetrahydro-2H-pyran-4-yl)amino)-pyrimidin-4-yl)-1H-imidazole-4-carbox amide], the half-maximal inhibitory concentration (IC50) is less than 50 nM on ERK1 and not above 50 nM against ERK2.

In the case of `Cc1cnc(NC2CCOCC2)nc1-n1cnc(C(=O)NCc2sccc2CO)c1` [Example 284, N-((3-(hydroxy-methyl)thiophen-2-yl)methyl)-1-(5-methyl-2-((tetrahydro-2H-pyran-4-yl)amino)-pyrimidin-4-yl)-1H-imidazole-4-carboxamide], the half-maximal inhibitory concentration (IC50) is less than 50 nM on ERK1 and not above 50 nM against ERK2.

With `Cc1cnc(NC2CCOCC2)nc1-n1cnc(C(=O)NCc2cccc(Cl)c2CN)c1` [Example 285, N-(2-(aminomethyl)-3-chlorobenzyl)-1-(5-methyl-2-((tetrahydro-2H-pyran-4-yl)amino)-pyrimidin-4-yl)-1H-imidazole-4-carboxamide], the half-maximal inhibitory concentration (IC50) against ERK1 was less than 50 nM; on ERK2 it was not above 50 nM.

As for `Cc1cnc(NC2CCC(F)(F)CC2)nc1-n1cnc(C(=O)N[C@H](CN)c2cccc(Cl)c2)c1` [Example 286, (S)-N-(2-amino-1-(3-chlorophenyl)-ethyl)-1-(2-((4,4-difluorocyclo-hexyl)amino)-5-methylpyrmidin-4-yl)-1H-imidazole-4-carboxamide], the concentration for half-maximal inhibition (IC50) is less than 50 nM at ERK1 and not above 50 nM against ERK2.

As for `Cc1cnc(NC2CCOCC2)nc1-n1cnc(C(=O)NCc2ccccc2CO)c1` [Example 287, N-(2-(hydroxy-methyl)benzyl)-1-(5-methyl-2-((tetrahydro-2H-pyran-4-yl)amino)-pyrimidin-4-yl)-1H-imidazole-4-carboxamide], the IC50 is less than 50 nM on ERK1 and not above 50 nM on ERK2.

`Cc1cnc(NC2CC(F)(F)C2)nc1-n1cnc(C(=O)N[C@H](CN)c2cc(F)cc(Cl)c2)c1` [Example 288, (S)-N-(2-amino-1-(3-chloro-5-fluoro-phenyl)ethyl)-1-(2-((3,3-difluoro-cyclobutyl)amino)-5-methylpyrimidin-4-yl)-1H-imidazole-4-carboxamide]: the half-maximal inhibitory concentration (IC50) was less than 50 nM against ERK1 and not above 50 nM against ERK2.

Regarding `Cc1cnc(NC2CC(F)(F)C2)nc1-n1cnc(C(=O)N[C@@H](CN)c2cc(F)cc(Cl)c2)c1` [Example 289, (R)-N-(2-amino-1-(3-chloro-5-fluoro-phenyl)ethyl)-1-(2-((3,3-difluoro-cyclobutyl)amino)-5-methylpyrimidin-4-yl)-1H-imidazole-4-carboxamide], the IC50 against ERK1 is 100 to 500 nM; against ERK2 it was 50 to 100 nM.
